Key:
BT-474 (breast) = test: Growth inhibition assay; format: cell-based; settings: Homo sapiens, BT-474, 72 h, read-out: IC50, growth inhibition of cultured cells
MDA-MB-175VII (breast) = test: Growth inhibition assay; format: cell-based; settings: Homo sapiens, 72 h, read-out: IC50, growth inhibition of cultured cells
[1] = Pharmacokinetics in nude mice; format: in vivo; settings: from human plasma AUC and pharmacokinetic parameters in nude mice
Calu-3 (lung) = test: Growth inhibition assay; format: cell-based; settings: Homo sapiens, Calu-3, 72 h, read-out: IC50, growth inhibition of cultured cells
SK-BR-3 (breast) = test: Growth inhibition assay; format: cell-based; settings: Homo sapiens, SK-BR-3, 72 h, read-out: IC50, growth inhibition of cultured cells
BT-474 cells = test: Survival model, intracranial implantation; format: in vivo, mice; settings: 200 mg/kg, oral daily
HT115 (colon) = test: Growth inhibition assay; format: cell-based; settings: Homo sapiens, HT115, 72 h, read-out: IC50, growth inhibition of cultured cells
serum albumin = serum albumin (Homo sapiens, UniProt P02768); settings: cited from earlier work
α1-acid glycoprotein = settings: cited from earlier work
NCI-N87 (stomach) = test: Growth inhibition assay; format: cell-based; settings: Homo sapiens, NCI-N87, 72 h, read-out: IC50, growth inhibition of cultured cells
MDA-MB-453 (breast) = test: Growth inhibition assay; format: cell-based; settings: Homo sapiens, MDA-MB-453, 72 h, read-out: IC50, growth inhibition of cultured cells
NCI-N87 cells = test: Growth inhibition in the presence of human serum protein; format: cell-based; settings: serum albumin or α1-acid glycoprotein vs standard medium
[2] = clinical dose 1200–1250 mg, once daily; cited from earlier work
MRC-5 (lung) = test: Growth inhibition assay; format: cell-based; settings: Homo sapiens, MRC5, 72 h, read-out: IC50, growth inhibition of cultured cells

Chain of serum albumin (P02768 25-609): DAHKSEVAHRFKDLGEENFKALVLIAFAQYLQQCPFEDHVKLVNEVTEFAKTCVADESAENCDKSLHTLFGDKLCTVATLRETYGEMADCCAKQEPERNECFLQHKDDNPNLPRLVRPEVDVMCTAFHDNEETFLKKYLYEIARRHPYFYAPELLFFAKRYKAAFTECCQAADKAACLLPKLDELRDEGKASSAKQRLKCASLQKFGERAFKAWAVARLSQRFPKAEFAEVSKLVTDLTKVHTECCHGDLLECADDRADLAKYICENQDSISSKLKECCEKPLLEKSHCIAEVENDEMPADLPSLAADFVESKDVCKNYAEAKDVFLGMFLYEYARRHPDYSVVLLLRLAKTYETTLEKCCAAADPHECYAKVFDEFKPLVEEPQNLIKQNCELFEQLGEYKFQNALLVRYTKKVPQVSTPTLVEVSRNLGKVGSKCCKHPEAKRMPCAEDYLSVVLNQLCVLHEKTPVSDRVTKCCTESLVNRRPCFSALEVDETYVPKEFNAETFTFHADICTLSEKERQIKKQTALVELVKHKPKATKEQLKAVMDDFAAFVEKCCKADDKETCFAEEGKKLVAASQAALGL

CS(=O)(=O)CCNCc1ccc(-c2ccc3ncnc(Nc4ccc(OCc5cccc(F)c5)c(Cl)c4)c3c2)o1 [Lapatinib, N-{3-chloro-4-[(3-fluorobenzyl)oxy]phenyl}-6-[5-({[2-(methylsulfonyl)ethyl]amino}methyl)-2-furyl]-4-quinazolinamine]
IC50 (BT-474 (breast)): 29.4 ± 2.2 nM | IC50 (MDA-MB-175VII (breast)): 70.2 ± 10.2 nM | Clinically relevant dose in mice (assumed) [1]: approximately 50 mg/kg | IC50 (Calu-3 (lung)): 510 ± 85.8 nM | IC50 (SK-BR-3 (breast)): 56.9 ± 5.4 nM | Survival (BT-474 cells): not significant | IC50 (HT115 (colon)): 100 ± 1.5 nM | Bound to serum albumin (serum albumin): > 99% | Bound to α1-acid glycoprotein (α1-acid glycoprotein): > 99% | IC50 (NCI-N87 (stomach)): 36.4 ± 5.2 nM | IC50 (MDA-MB-453 (breast)): 170 ± 3 nM | Elevation of IC50 by addition of serum proteins (NCI-N87 cells): 10.6–12.7 fold | Human plasma AUC [2]: 14300 to 36200 ng·h/mL | IC50 (MRC-5 (lung)): 9140 ± 643 nM

From article PMC4317859 (Cancer Science, 2014)
